Test results: ChEMBL document CHEMBL1687748 (Antimicrob Agents Chemother, 2009)
Converted amounts (≈) assume the structure as drawn.

What was measured:
Assay type in all cases: functional
Bacillus anthracis [1] = assay: Total spore counts of toxin and capsule gene-deficient Bacillus anthracis Sterne in hollow-fiber pharmacodynamic infection model at 100 mg, qd by Bayesian method
Bacillus anthracis [2] = assay: Total spore counts of toxin and capsule gene-deficient Bacillus anthracis Sterne in hollow-fiber pharmacodynamic infection model administered for every 24 hrs
Bacillus anthracis [3] = assay: Total sensitive organism counts of toxin and capsule gene-deficient Bacillus anthracis Sterne in hollow-fiber pharmacodynamic infection model at 200 mg administered as continuous infusion by Bayesian method
Bacillus anthracis [4] = assay: Growth rate constant of vegetative-phase cells going to spore phase in toxin and capsule gene-deficient Bacillus anthracis Sterne in hollow-fiber pharmacodynamic infection model at 250 mg administered as continuous infusion by Bayesian method
Bacillus anthracis [5] = assay: Total sensitive organism counts of toxin and capsule gene-deficient Bacillus anthracis Sterne in hollow-fiber pharmacodynamic infection model at 100 mg, qd by Bayesian method
Bacillus anthracis [6] = assay: Kill rate constant for compound-sensitive toxin and capsule gene-deficient Bacillus anthracis Sterne in hollow-fiber pharmacodynamic infection model at 250 mg, qd by Bayesian method
Bacillus anthracis [7] = assay: Total sensitive organism counts of toxin and capsule gene-deficient Bacillus anthracis Sterne in hollow-fiber pharmacodynamic infection model at 150 mg, qd by Bayesian method
Bacillus anthracis [8] = assay: Growth rate constant of vegetative-phase cells going to spore phase in toxin and capsule gene-deficient Bacillus anthracis Sterne in hollow-fiber pharmacodynamic infection model administered for every 24 hrs
Bacillus anthracis [9] = assay: Growth rate constant for compound-sensitive toxin and capsule gene-deficient Bacillus anthracis Sterne in hollow-fiber pharmacodynamic infection model at 100 mg, qd by Bayesian method
Bacillus anthracis [10] = assay: Kill rate constant for compound-sensitive toxin and capsule gene-deficient Bacillus anthracis Sterne in hollow-fiber pharmacodynamic infection model at 100 mg, qd by Bayesian method
Bacillus anthracis [11] = assay: Total spore counts of toxin and capsule gene-deficient Bacillus anthracis Sterne in hollow-fiber pharmacodynamic infection model at 200 mg administered as continuous infusion by Bayesian method
Bacillus anthracis [12] = assay: Growth rate constant for compound-sensitive toxin and capsule gene-deficient Bacillus anthracis Sterne in hollow-fiber pharmacodynamic infection model at 100 mg administered as continuous infusion by Bayesian method
Bacillus anthracis [13] = assay: Total spore counts of toxin and capsule gene-deficient Bacillus anthracis Sterne in hollow-fiber pharmacodynamic infection model at 150 mg, qd by Bayesian method
Bacillus anthracis [14] = assay: Kill rate constant for compound-sensitive toxin and capsule gene-deficient Bacillus anthracis Sterne in hollow-fiber pharmacodynamic infection model administered as continuous infusion
Bacillus anthracis [15] = assay: Growth rate constant of vegetative-phase cells going to spore phase in toxin and capsule gene-deficient Bacillus anthracis Sterne in hollow-fiber pharmacodynamic infection model administered as continuous infusion
Bacillus anthracis [16] = assay: Hill constant for compound-sensitive toxin and capsule gene-deficient Bacillus anthracis Sterne in hollow-fiber pharmacodynamic infection model at 250 mg, qd by Bayesian method
Bacillus anthracis [17] = assay: Kill rate constant for compound-sensitive toxin and capsule gene-deficient Bacillus anthracis Sterne in hollow-fiber pharmacodynamic infection model at 50 mg, qd by Bayesian method
Bacillus anthracis [18] = assay: Growth rate constant of vegetative-phase cells going to spore phase in toxin and capsule gene-deficient Bacillus anthracis Sterne in hollow-fiber pharmacodynamic infection model at 200 mg, qd by Bayesian method
Bacillus anthracis [19] = assay: Growth rate constant of spore-phase cells going to vegetative phase in toxin and capsule gene-deficient Bacillus anthracis Sterne in hollow-fiber pharmacodynamic infection model at 200 mg administered as continuous infusion by Bayesian method
Bacillus anthracis [20] = assay: Hill constant for compound-sensitive toxin and capsule gene-deficient Bacillus anthracis Sterne in hollow-fiber pharmacodynamic infection model administered as continuous infusion
Bacillus anthracis [21] = assay: Hill constant for compound-sensitive toxin and capsule gene-deficient Bacillus anthracis Sterne in hollow-fiber pharmacodynamic infection model at 200 mg, qd by Bayesian method
Bacillus anthracis [22] = assay: Growth rate constant for compound-sensitive toxin and capsule gene-deficient Bacillus anthracis Sterne in hollow-fiber pharmacodynamic infection model at 250 mg administered as continuous infusion by Bayesian method
Bacillus anthracis [23] = assay: Hill constant for compound-sensitive toxin and capsule gene-deficient Bacillus anthracis Sterne in hollow-fiber pharmacodynamic infection model at 150 mg, qd by Bayesian method
Bacillus anthracis [24] = assay: Growth rate constant of vegetative-phase cells going to spore phase in toxin and capsule gene-deficient Bacillus anthracis Sterne in hollow-fiber pharmacodynamic infection model at 200 mg administered as continuous infusion by Bayesian method
Bacillus anthracis [25] = assay: Growth rate constant of vegetative-phase cells going to spore phase in toxin and capsule gene-deficient Bacillus anthracis Sterne in hollow-fiber pharmacodynamic infection model at 100 mg administered as continuous infusion by Bayesian method
Bacillus anthracis [26] = assay: Growth rate constant of spore-phase cells going to vegetative phase in toxin and capsule gene-deficient Bacillus anthracis Sterne in hollow-fiber pharmacodynamic infection model administered for every 24 hrs
Bacillus anthracis [27] = assay: Total spore counts of toxin and capsule gene-deficient Bacillus anthracis Sterne in hollow-fiber pharmacodynamic infection model at 250 mg administered as continuous infusion by Bayesian method
Bacillus anthracis [28] = assay: Kill rate constant for compound-sensitive toxin and capsule gene-deficient Bacillus anthracis Sterne in hollow-fiber pharmacodynamic infection model at 150 mg administered as continuous infusion by Bayesian method
Bacillus anthracis [29] = assay: Total sensitive organism counts of toxin and capsule gene-deficient Bacillus anthracis Sterne in hollow-fiber pharmacodynamic infection model at 250 mg, qd by Bayesian method
Bacillus anthracis [30] = assay: Growth rate constant of spore-phase cells going to vegetative phase in toxin and capsule gene-deficient Bacillus anthracis Sterne in hollow-fiber pharmacodynamic infection model at 50 mg, qd by Bayesian method
Bacillus anthracis [31] = assay: Growth rate constant of spore-phase cells going to vegetative phase in toxin and capsule gene-deficient Bacillus anthracis Sterne in hollow-fiber pharmacodynamic infection model at 250 mg administered as continuous infusion by Bayesian method
Bacillus anthracis [32] = assay: Growth rate constant of spore-phase cells going to vegetative phase in toxin and capsule gene-deficient Bacillus anthracis Sterne in hollow-fiber pharmacodynamic infection model at 250 mg, qd by Bayesian method
Bacillus anthracis [33] = assay: Hill constant for compound-sensitive toxin and capsule gene-deficient Bacillus anthracis Sterne in hollow-fiber pharmacodynamic infection model at 50 mg, qd by Bayesian method
Bacillus anthracis [34] = assay: Total spore counts of toxin and capsule gene-deficient Bacillus anthracis Sterne in hollow-fiber pharmacodynamic infection model at 250 mg, qd by Bayesian method
Bacillus anthracis [35] = assay: Antimicrobial activity against toxin and capsule gene-deficient Bacillus anthracis Sterne after 24 hrs by […] method
Bacillus anthracis [36] = assay: Kill rate constant for compound-sensitive toxin and capsule gene-deficient Bacillus anthracis Sterne in hollow-fiber pharmacodynamic infection model at 200 mg, qd by Bayesian method
Bacillus anthracis [37] = assay: Kill rate constant for compound-sensitive toxin and capsule gene-deficient Bacillus anthracis Sterne in hollow-fiber pharmacodynamic infection model at 150 mg, qd by Bayesian method
Bacillus anthracis [38] = assay: Total spore counts of toxin and capsule gene-deficient Bacillus anthracis Sterne in hollow-fiber pharmacodynamic infection model at 150 mg administered as continuous infusion by Bayesian method
Bacillus anthracis [39] = assay: Growth rate constant for compound-sensitive toxin and capsule gene-deficient Bacillus anthracis Sterne in hollow-fiber pharmacodynamic infection model at 200 mg administered as continuous infusion by Bayesian method

`COc1c(N2C[C@@H]3CCCN[C@@H]3C2)c(F)cc2c(=O)c(C(=O)O)cn(C3CC3)c12` [MOXIFLOXACIN] was tested, and the CFU/ml (Bacillus anthracis [1]) was 1900000, the CFU/ml (Bacillus anthracis [2]) was 1740000 and the CFU/ml (Bacillus anthracis [3]) was 20600000. The Activity (Bacillus anthracis [4]) was 5.18 h⁻¹, the CFU/ml (Bacillus anthracis [5]) was 28000000 and the Activity (Bacillus anthracis [6]) was 4.48 h⁻¹. The CFU/ml (Bacillus anthracis [7]) was 21500000, the Activity (Bacillus anthracis [8]) was 4.96 h⁻¹ and the Activity (Bacillus anthracis [9]) was 6.57 h⁻¹. The Activity (Bacillus anthracis [10]) was 7.48 h⁻¹, the CFU/ml (Bacillus anthracis [11]) was 1870000 and the Activity (Bacillus anthracis [12]) was 8.26 h⁻¹. It also gave a CFU/ml (Bacillus anthracis [13]) of 1890000, an Activity (Bacillus anthracis [14]) of 6.41 h⁻¹ and an Activity (Bacillus anthracis [15]) of 1.2 h⁻¹. It also gave an Activity (Bacillus anthracis [16]) of 1 h⁻¹, an Activity (Bacillus anthracis [17]) of 6.24 h⁻¹ and an Activity (Bacillus anthracis [18]) of 2.09 h⁻¹. The Activity (Bacillus anthracis [19]) was 6.65 h⁻¹, the Activity (Bacillus anthracis [20]) was 5.93 h⁻¹ and the Activity (Bacillus anthracis [21]) was 1 h⁻¹. It also gave an Activity (Bacillus anthracis [22]) of 8.25 h⁻¹, an Activity (Bacillus anthracis [23]) of 30 h⁻¹ and an Activity (Bacillus anthracis [24]) of 5.3 h⁻¹. The Activity (Bacillus anthracis [25]) was 1.17 h⁻¹, the Activity (Bacillus anthracis [26]) was 7.31 h⁻¹ and the CFU/ml (Bacillus anthracis [27]) was 1860000. The Activity (Bacillus anthracis [28]) was 8.28 h⁻¹, the CFU/ml (Bacillus anthracis [29]) was 36000000 and the Activity (Bacillus anthracis [30]) was 2.91 h⁻¹. It also gave an Activity (Bacillus anthracis [31]) of 7.23 h⁻¹, an Activity (Bacillus anthracis [32]) of 1.04 h⁻¹ and an Activity (Bacillus anthracis [33]) of 5.84 h⁻¹. It also gave a CFU/ml (Bacillus anthracis [34]) of 2360000, an MBC (Bacillus anthracis [35]) of 1 µg/mL (≈ 2.49 µM) and an Activity (Bacillus anthracis [36]) of 4.29 h⁻¹. For the same compound, the Activity (Bacillus anthracis [37]) was 6.58 h⁻¹, the CFU/ml (Bacillus anthracis [38]) was 1880000 and the Activity (Bacillus anthracis [39]) was 8.25 h⁻¹.
